Structures can show the parent of a compound that is named as a salt.
How the values were obtained:
S-3769 strain = assay: Combinational effect with antibacterial agent against Pseudomonas aeruginosa (Test Examples 2 and 4): S-3769 strain with AMK or GM at 1/4 MIC, EC99; type: cell-based; conditions: S-3769 strain, Test Example 4; for EC99, combinational effect with AMK, S-3769 strain: combined with AMK at 1/4 MIC; for EC99, combinational effect with GM, S-3769 strain: combined with GM at 1/4 MIC
Procedure, shortened: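 P. aeruginosa S-3769 (clinical isolate, MexY overexpressed) grown 16–20 h in CAMHB, 10^4 to 5 CFU/well, with AMK or GM at ¼ MIC plus test compound 0–800 μM. Growth read as OD595; EC99 is the lowest compound concentration giving ≥99% growth inhibition.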

mexB (PA) strain = assay: Combinational effect with antibacterial agent against Pseudomonas aeruginosa (Test Examples 2 and 4): mexB (PA) strain with LVFX, TC or AZT at 1/4 MIC, EC99; type: cell-based; conditions: mexB (PA) strain, Test Example 4; for EC99, combinational effect with AZT, mexB (PA): combined with AZT at 1/4 MIC; for EC99, combinational effect with LVFX, mexB (PA): combined with LVFX at 1/4 MIC; for EC99, combinational effect with TC, mexB (PA): combined with TC at 1/4 MIC
Procedure, shortened: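 P. aeruginosa mexB (PA) strain, lacking MexCD-OprJ, MexEF-OprN and MexXY and overexpressing MexAB-OprM, grown 16–20 h in CAMHB (10^4–5 CFU/well) with LVFX, TC or AZT at ¼ MIC plus test compound at 0–800 μM. Growth read as OD595; EC99 is the lowest compound concentration giving ≥99% growth inhibition.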

Structure (SMILES)	EC99, combinational effect with AMK, S-3769 strain (S-3769 strain)	EC99, combinational effect with GM, S-3769 strain (S-3769 strain)	EC99, combinational effect with AZT, mexB (PA) (mexB (PA) strain)	EC99, combinational effect with LVFX, mexB (PA) (mexB (PA) strain)	EC99, combinational effect with TC, mexB (PA) (mexB (PA) strain)
COc1c(CN2CCN(C(=O)[C@H](N)C3CCN(CCc4cc(Cl)ccc4-c4ccccc4)CC3)CC2)cccc1B(O)O [Example 537, Hydrobromide of (R)-(3-((4-(2-amino-2-(1-(2-(4-chloro-[1,1-biphenyl]-2-yl)ethyl)piperidin-4-yl)acetyl)piperazin-1-yl)methyl)-2-methoxyphenyl)boronic acid]	B (25 μM<EC99≤100 μM)	A (12.5 μM<EC99≤25 μM)	C (100 μM<EC99)	C (100 μM<EC99)	B (25 μM<EC99≤100 μM)
CSc1ccccc1CN1CCN(C(=O)[C@H](N)C2CCN(CCc3cscc3-c3ccccc3)CC2)CC1 [Example 539, Hydrobromide of (R)-2-amino-1-(4-(2-(methylthio)benzyl)piperazin-1-yl)-2-(1-(2-(4-phenylthiophen-3-yl)ethyl)piperidin-4-yl)ethan-1-one]	B (25 μM<EC99≤100 μM)	B (25 μM<EC99≤100 μM)	B (25 μM<EC99≤100 μM)	B (25 μM<EC99≤100 μM)	B (25 μM<EC99≤100 μM)
CCOc1cccc(F)c1CN1CCN(C(=O)[C@H](N)C2CCN(CCc3cscc3-c3ccccc3)CC2)CC1 [Example 540, Hydrobromide of (R)-2-amino-1-(4-(2-ethoxy-6-fluorobenzyl)piperazin-1-yl)-2-(1-(2-(4-phenylthiophen-3-yl)ethyl)piperidin-4-yl)ethan-1-one]	A (12.5 μM<EC99≤25 μM)	A (12.5 μM<EC99≤25 μM)	C (100 μM<EC99)	B (25 μM<EC99≤100 μM)	B (25 μM<EC99≤100 μM)
CCSc1cc(F)ccc1CN1CCN(C(=O)[C@H](N)C2CCN(CCc3ncccc3-c3ccccc3)CC2)CC1 [Example 542, Hydrobromide of (R)-2-amino-1-(4-(2-(ethylthio)-4-fluorobenzyl)piperazin-1-yl)-2-(1-(2-(3-phenylpyridin-2-yl)ethyl)piperidin-4-yl)ethan-1-one]	B (25 μM<EC99≤100 μM)	B (25 μM<EC99≤100 μM)	B (25 μM<EC99≤100 μM)	B (25 μM<EC99≤100 μM)	B (25 μM<EC99≤100 μM)
CCSc1cc(F)ccc1CN1CCN(C(=O)[C@H](N)C2CCN(CCc3cc(Cl)ccc3-c3cccc(N)c3)CC2)CC1 [Example 544, hydrobromide of (R)-2-amino-2-(1-(2-(3′-amino-4-chloro-[1,1′-biphenyl]-2-yl)ethyl)piperidin-4-yl)-1-(4-(2-(ethylthio)-4-fluorobenzyl)piperazin-1-yl)ethan-1-one]	A (12.5 μM<EC99≤25 μM)	S (EC99≤12.5 μM)	S (EC99≤12.5 μM)	S (EC99≤12.5 μM)	S (EC99≤12.5 μM)
CCOc1cccc(F)c1CN1CCN(C(=O)[C@H](N)C2CCN(CCc3cc(Cl)ccc3-c3ccoc3)CC2)CC1 [Example 547, Hydrobromide of (R)-2-amino-2-(1-(5-chloro-2-(furan-3-yl)phenethyl)piperidin-4-yl)-1-(4-(2-ethoxy-6-fluorobenzyl)piperazin-1-yl)ethan-1-one]	S (EC99≤12.5 μM)	S (EC99≤12.5 μM)	B (25 μM<EC99≤100 μM)	B (25 μM<EC99≤100 μM)	C (100 μM<EC99)
CCOc1cccc(F)c1CN1CCN(C(=O)[C@H](N)C2CCN(CCc3cc(Cl)ccc3-c3cccc4ccccc34)CC2)CC1 [Example 548, Hydrobromide of (R)-2-amino-2-(1-(5-chloro-2-(naphthalen-1-yl)phenethyl)piperidin-4-yl)-1-(4-(2-ethoxy-6-fluorobenzyl)piperazin-1-yl)ethan-1-one]	S (EC99≤12.5 μM)	A (12.5 μM<EC99≤25 μM)	A (12.5 μM<EC99≤25 μM)	S (EC99≤12.5 μM)	A (12.5 μM<EC99≤25 μM)
CCOc1cccc(F)c1CN1CCN(C(=O)[C@H](N)C2CCN(CCc3cc(Cl)ccc3-c3coc4ccccc34)CC2)CC1 [Example 549, Hydrobromide of (R)-2-amino-2-(1-(2-(benzofuran-3-yl)-5-chlorophenethyl)piperidin-4-yl)-1-(4-(2-ethoxy-6-fluorobenzyl)piperazin-1-yl)ethan-1-one]	A (12.5 μM<EC99≤25 μM)	A (12.5 μM<EC99≤25 μM)	A (12.5 μM<EC99≤25 μM)	A (12.5 μM<EC99≤25 μM)	A (12.5 μM<EC99≤25 μM)
CCOc1cccc(F)c1CN1CCN(C(=O)[C@H](N)C2CCN(CCc3cc(Cl)ccc3-c3csc4ccccc34)CC2)CC1 [Example 550, Hydrobromide of (R)-2-amino-2-(1-(2-(benzo[b]thiophen-3-yl)-5-chlorophenethyl)piperidin-4-yl)-1-(4-(2-ethoxy-6-fluorobenzyl)piperazin-1-yl)ethan-1-one]	A (12.5 μM<EC99≤25 μM)	A (12.5 μM<EC99≤25 μM)	A (12.5 μM<EC99≤25 μM)	S (EC99≤12.5 μM)	A (12.5 μM<EC99≤25 μM)
CSc1ccccc1CN1CCN(C(=O)[C@H](N)C2CCN(CCc3cc(Cl)ccc3-c3cccc(F)c3)CC2)CC1 [Example 551, Hydrobromide of (R)-2-amino-2-(1-(2-(4-chloro-3′-fluoro-[1,1-biphenyl]-2-yl)ethyl)piperidin-4-yl)-1-(4-(2-(methylthio)benzyl)piperazin-1-yl)ethan-1-one]	B (25 μM<EC99≤100 μM)	A (12.5 μM<EC99≤25 μM)	S (EC99≤12.5 μM)	S (EC99≤12.5 μM)	S (EC99≤12.5 μM)
CSc1ccccc1CN1CCN(C(=O)[C@H](N)C2CCN(CCc3cc(Cl)ccc3C3=CCCNC3)CC2)CC1 [Example 553, Hydrobromide of (R)-2-amino-2-(1-(5-chloro-2-(1,2,5,6-tetrahydropyridin-3-yl)phenethyl)piperidin-4-yl)-1-(4-(2-(methylthio)benzyl)piperazin-1-yl)ethan-1-one]	S (EC99≤12.5 μM)	S (EC99≤12.5 μM)	A (12.5 μM<EC99≤25 μM)	S (EC99≤12.5 μM)	S (EC99≤12.5 μM)
CCSc1cc(F)ccc1CN1CCN(C(=O)[C@H](N)C2CCN(CCc3cc(Cl)ccc3-c3cccc(F)c3)CC2)CC1 [Example 554, Hydrobromide of (R)-2-amino-2-(1-(2-(4-chloro-3′-fluoro-[1,1-biphenyl]-2-yl)ethyl)piperidin-4-yl)-1-(4-(2-(ethylthio)-4-fluorobenzyl)piperazin-1-yl)ethan-1-one]	A (12.5 μM<EC99≤25 μM)	S (EC99≤12.5 μM)	S (EC99≤12.5 μM)	S (EC99≤12.5 μM)	S (EC99≤12.5 μM)
CSc1ccccc1CN1CCN(C(=O)[C@H](N)C2CCN(CCc3cc(Cl)ccc3-c3ccccc3N)CC2)CC1 [Example 556, Hydrobromide of (R)-2-amino-2-(1-(2-(2′-amino-4-chloro-[1,1-biphenyl]-2-yl)ethyl)piperidin-4-yl)-1-(4-(2-(methylthio)benzyl)piperazin-1-yl)ethan-1-one]	B (25 μM<EC99≤100 μM)	B (25 μM<EC99≤100 μM)	S (EC99≤12.5 μM)	S (EC99≤12.5 μM)	S (EC99≤12.5 μM)
CCOc1cccc(F)c1CN1CCN(C(=O)[C@H](N)C2CCN(CCc3cc(Cl)ccc3-c3cccc(N)c3F)CC2)CC1 [Example 557, Hydrobromide of (R)-2-amino-2-(1-(2-(3′-amino-4-chloro-2′-fluoro-[1,1-biphenyl]-2-yl)ethyl)piperidin-4-yl)-1-(4-(2-ethoxy-6-fluorobenzyl)piperazin-1-yl)ethan-1-one]	A (12.5 μM<EC99≤25 μM)	A (12.5 μM<EC99≤25 μM)	S (EC99≤12.5 μM)	S (EC99≤12.5 μM)	S (EC99≤12.5 μM)

— patent US20250326744A1, “PIPERAZINE DERIVATIVE OR SALT THEREOF, AND PHARMACEUTICAL COMPOSITION” (priority 2022, published 2025)
